Test results published in patent US9302999B2, “Substituted triazoles as herbicides” (E. I. DU PONT DE NEMOURS AND COMPANY, priority 2012, dated 2016).

Assays:
Type in all cases: in vivo
[1] = tested on: sedge, umbrella (small-flower umbrella sedge Cyperus difformis); experiment: Test B flooded paddy: sedge, umbrella; conditions: Flood; 250 g ai/ha; applied to paddy water at 2-leaf stage; visually evaluated after 13 to 15 days
Outline: (§1)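 Response scored visually, 0–100 relative to controls, 13–15 days after the compound was applied into paddy water; plants were at the 2-leaf stage in pots kept flooded to 3 cm.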

[2] = tested on: ragweed (common ragweed, Ambrosia elation); experiment: Test C pre-/postemergence: ragweed
Outline: (§2)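 Preemergence on seeds in loam/sand, postemergence on 2–18 cm (1–4-leaf) plants in peat-based medium; compounds in non-phytotoxic solvent with surfactant. After 13–15 days in greenhouse, visual rating versus controls, 0 (no effect) to 100 (complete control).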

kochia (Kochia scoparia) = experiment: Test C pre-/postemergence: kochia; conditions: Postemergence
Outline: as §2

soybean (Glycine max) = experiment: Test C pre-/postemergence: soybean
Outline: as §2

corn (Zea mays) = experiment: Test A pre-/postemergence: corn
Outline: (§3)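 Rating scale 0–100 (100 = complete control), visual, ~10 days after application in the greenhouse. Applications: preemergence directed soil spray; postemergence at 1–2 leaves.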

[3] = tested on: foxtail, giant (giant foxtail, Setaria faberii); experiment: Test A pre-/postemergence: foxtail, giant
Outline: as §3

[4] = tested on: ducksalad (Heteranthera limosa); experiment: Test B flooded paddy: ducksalad; conditions: Flood; 250 g ai/ha; applied to paddy water at 2-leaf stage; visually evaluated after 13 to 15 days
Outline: as §1

[5] = tested on: ryegrass, Italian (Italian ryegrass, Lolium multiflorum); experiment: Test C pre-/postemergence: ryegrass, Italian
Outline: as §2

[6] = tested on: johnsongrass (Sorghum halepense); experiment: Test C pre-/postemergence: johnsongrass
Outline: as §2

[7] = tested on: morningglory (Ipomoea spp.); experiment: Test A pre-/postemergence: morningglory
Outline: as §3

[8] = tested on: chickweed (common chickweed, Stellaria media); experiment: Test C postemergence: chickweed
Outline: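 Greenhouse pot test; foliar postemergence treatment at 1- to 4-leaf stage. Rated visually at 13 to 15 days on a 0–100 control scale relative to untreated plants.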

[9] = Postemergence, 31 g ai/ha, scale 0 to 100 (0 no effect, 100 complete control)
[10] = Postemergence, 62 g ai/ha, scale 0 to 100 (0 no effect, 100 complete control)
[11] = Postemergence, 125 g ai/ha, scale 0 to 100, 0 no effect, 100 complete control
[12] = Postemergence, 250 g ai/ha, scale 0 to 100 (0 no effect, 100 complete control)
[13] = Preemergence, 31 g ai/ha, scale 0 (no effect) to 100 (complete control)
[14] = Preemergence, 62 g ai/ha, scale of 0 to 100, 0 is no effect, 100 is complete control
[15] = Preemergence, 125 g ai/ha, scale 0 to 100, 0 no effect, 100 complete control
[16] = Preemergence, 250 g ai/ha, scale 0 to 100, 0 no effect, 100 complete control
[17] = 31 g ai/ha, scale 0 to 100 (0 no effect, 100 complete control)
[18] = 62 g ai/ha, scale 0 to 100 (0 no effect, 100 complete control)
[19] = 125 g ai/ha, scale 0 to 100, 0 no effect, 100 complete control
[20] = Postemergence, 125 g ai/ha, 0 to 100 scale, 0 is no effect, 100 is complete control
[21] = Postemergence, 500 g ai/ha, 0 to 100 scale, 0 is no effect, 100 is complete control
[22] = Preemergence, 125 g ai/ha, 0 to 100 scale where 0 is no effect and 100 is complete control
[23] = Preemergence, 500 g ai/ha, 0 to 100 scale (0 no effect, 100 complete control)

## CCc1nn(-c2ccc(F)c(F)c2)nc1Oc1ccnc(C(F)(F)F)c1 [Compound 171]
[1]
  Plant response rating, Sedge, Umbrella (0 to 100 scale, 0 is no effect, 100 is complete control): 85
[2]; [9]
  Plant response rating, Ragweed: 55
[2]; [10]
  Plant response rating, Ragweed: 55
[2]; [11]
  Plant response rating, Ragweed: 55
[2]; [12]
  Plant response rating, Ragweed: 55
[2]; [13]
  Plant response rating, Ragweed: 0
[2]; [14]
  Plant response rating, Ragweed: 5
[2]; [15]
  Plant response rating, Ragweed: 10
[2]; [16]
  Plant response rating, Ragweed: 15
Kochia (Kochia scoparia); [17]
  Plant response rating, Kochia: 90
Kochia (Kochia scoparia); [18]
  Plant response rating, Kochia: 90
Kochia (Kochia scoparia); [19]
  Plant response rating, Kochia: 90
Kochia (Kochia scoparia); 250 g ai/ha, scale 0 to 100 (0 no effect, 100 complete control)
  Plant response rating, Kochia: 90
Soybean (Glycine max); [9]
  Plant response rating, Soybean: 25
Soybean (Glycine max); [10]
  Plant response rating, Soybean: 35
Soybean (Glycine max); [11]
  Plant response rating, Soybean: 40
Soybean (Glycine max); [13]
  Plant response rating, Soybean: 0
Soybean (Glycine max); [14]
  Plant response rating, Soybean: 0
Soybean (Glycine max); [15]
  Plant response rating, Soybean: 5
Corn (Zea mays); [20]
  Plant response rating, Corn: 20
Corn (Zea mays); [21]
  Corn plant response rating: 30
Corn (Zea mays); [22]
  Plant response rating, Corn: 10
Corn (Zea mays); [23]
  Plant response rating, Corn: 30
[3]; [20]
  Plant response rating, Foxtail, Giant: 80
[3]; [21]
  Foxtail, Giant plant response rating: 90
[3]; [22]
  Plant response rating, Foxtail, Giant: 100
[3]; [23]
  Plant response rating, Foxtail, Giant: 100
[4]
  Plant response rating, Ducksalad (0 to 100 scale, 0 is no effect, 100 is complete control): 0
[5]; [9]
  Plant response rating, Ryegrass, Italian: 5
[5]; [10]
  Plant response rating, Ryegrass, Italian: 5
[5]; [11]
  Plant response rating, Ryegrass, Italian: 10
[5]; [12]
  Plant response rating, Ryegrass, Italian: 10
[5]; [13]
  Plant response rating, Ryegrass, Italian: 10
[5]; [14]
  Plant response rating, Ryegrass, Italian: 50
[5]; [15]
  Plant response rating, Ryegrass, Italian: 60
[5]; [16]
  Plant response rating, Ryegrass, Italian: 100
[6]; [9]
  Plant response rating, Johnsongrass: 15
[6]; [10]
  Plant response rating, Johnsongrass: 15
[6]; [11]
  Plant response rating, Johnsongrass: 25
[6]; [12]
  Plant response rating, Johnsongrass: 25
[6]; [13]
  Plant response rating, Johnsongrass: 0
[6]; [14]
  Plant response rating, Johnsongrass: 25
[6]; [15]
  Plant response rating, Johnsongrass: 75
[6]; [16]
  Plant response rating, Johnsongrass: 95
[7]; [20]
  Plant response rating, Morningglory: 100
[7]; [21]
  Morningglory plant response rating: 100
[7]; [22]
  Plant response rating, Morningglory: 50
[7]; [23]
  Plant response rating, Morningglory: 60
[8]; [17]
  Plant response rating, Chickweed: 50
[8]; [18]
  Plant response rating, Chickweed: 70
[8]; [19]
  Plant response rating, Chickweed: 95
[8]; 250 g ai/ha, scale 0 to 100
  Plant response rating, Chickweed: 100
